Tests used:
Assay in all cases: KINOMEscan
Type in all cases: binding
Details in all cases: read-out: Remaining enzyme activity
[1] = target: T1, CAMKK1 (Homo sapiens, UniProt Q8N5S9)
T1 construct: purchased Ambit (DiscoverX) KINOMEscan; Cerep
Outline: (§1)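 Competition binding: DNA-tagged kinase, immobilized active-site ligand and test compound were combined, and kinase left on beads was quantified by qPCR of the DNA tag. Kinases were T7 phage fusions grown in a BL21-derived E. coli host or were expressed in HEK-293 cells. SC81458 was tested at 10 μM final.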

[2] = target: T2, DRAK1 (Homo sapiens, UniProt Q9UEE5)
T2 construct: purchased Ambit (DiscoverX) KINOMEscan; Cerep
Outline: as §1

[3] = target: T3, DYRK2 (Homo sapiens, UniProt Q92630)
T3 construct: purchased Ambit (DiscoverX) KINOMEscan; Cerep
Outline: as §1

[4] = target: T4, EGFR(G719S) (Homo sapiens, UniProt P00533, G719S)
T4 construct: purchased Ambit (DiscoverX) KINOMEscan; Cerep
Outline: as §1

[5] = target: T5, EGFR(L747-E752del, P753S) (Homo sapiens, UniProt P00533, DEL747-752/P753S)
T5 construct: purchased Ambit (DiscoverX) KINOMEscan; Cerep
Outline: as §1

[6] = target: T6, EGFR(L858R, T790M) (Homo sapiens, UniProt P00533, L858R/T790M)
T6 construct: purchased Ambit (DiscoverX) KINOMEscan; Cerep
Outline: as §1

[7] = target: T7, EGFR(S752-I759del) (Homo sapiens, UniProt P00533, DEL752-759)
T7 construct: purchased Ambit (DiscoverX) KINOMEscan; Cerep
Outline: as §1

[8] = target: T8, FES (Homo sapiens, UniProt P07332)
T8 construct: purchased Ambit (DiscoverX) KINOMEscan; Cerep
Outline: as §1

[9] = target: T9, GRK1 (Homo sapiens, UniProt Q15835)
T9 construct: purchased Ambit (DiscoverX) KINOMEscan; Cerep
Outline: as §1

[10] = target: T10, HIPK3 (Homo sapiens, UniProt Q9H422)
T10 construct: purchased Ambit (DiscoverX) KINOMEscan; Cerep
Outline: as §1

[11] = target: T11, JAK1(JH2domain-pseudokinase) (Homo sapiens, UniProt P23458)
T11 construct: JAK1(JH2domain-pseudokinase); purchased Ambit (DiscoverX) KINOMEscan; Cerep
Outline: as §1

[12] = target: T12, KIT(D816V) (Homo sapiens, UniProt P10721, D816V)
T12 construct: purchased Ambit (DiscoverX) KINOMEscan; Cerep
Outline: as §1

[13] = target: T13, LOK (Homo sapiens, UniProt O94804)
T13 construct: purchased Ambit (DiscoverX) KINOMEscan; Cerep
Outline: as §1

[14] = target: T14, LYN (Homo sapiens, UniProt P07948)
T14 construct: purchased Ambit (DiscoverX) KINOMEscan; Cerep
Outline: as §1

[15] = target: T15, MAPKAPK5 (Homo sapiens, UniProt Q8IW41)
T15 construct: purchased Ambit (DiscoverX) KINOMEscan; Cerep
Outline: as §1

[16] = target: T16, MKNK1 (Homo sapiens, UniProt Q9BUB5)
T16 construct: purchased Ambit (DiscoverX) KINOMEscan; Cerep
Outline: as §1

[17] = target: T17, MLK2 (Homo sapiens, UniProt Q02779)
T17 construct: purchased Ambit (DiscoverX) KINOMEscan; Cerep
Outline: as §1

[18] = target: T18, PDGFRb (Homo sapiens, UniProt P09619)
T18 construct: purchased Ambit (DiscoverX) KINOMEscan; Cerep
Outline: as §1

[19] = target: T19, PIK3CA(E545K) (Homo sapiens, UniProt P42336, E545K)
T19 construct: purchased Ambit (DiscoverX) KINOMEscan; Cerep
Outline: as §1

[20] = target: T20, PIM2 (Homo sapiens, UniProt Q9P1W9)
T20 construct: purchased Ambit (DiscoverX) KINOMEscan; Cerep
Outline: as §1

[21] = target: T21, PIP5K2b (Homo sapiens, UniProt P78356)
T21 construct: purchased Ambit (DiscoverX) KINOMEscan; Cerep
Outline: as §1

[22] = target: T22, PLK2 (Homo sapiens, UniProt Q9NYY3)
T22 construct: purchased Ambit (DiscoverX) KINOMEscan; Cerep
Outline: as §1

[23] = target: T23, RIOK2 (Homo sapiens, UniProt Q9BVS4)
T23 construct: purchased Ambit (DiscoverX) KINOMEscan; Cerep
Outline: as §1

[24] = target: T24, RIPK2 (Homo sapiens, UniProt O43353)
T24 construct: purchased Ambit (DiscoverX) KINOMEscan; Cerep
Outline: as §1

[25] = target: T25, RPS6KA1(Kin.Dom.1-N-term) (Homo sapiens, UniProt Q15418)
T25 construct: RPS6KA1(Kin.Dom.1-N-term); purchased Ambit (DiscoverX) KINOMEscan; Cerep
Outline: as §1

[26] = target: T26, SRPK2 (Homo sapiens, UniProt P78362)
T26 construct: purchased Ambit (DiscoverX) KINOMEscan; Cerep
Outline: as §1

[27] = target: T27, STK36 (Homo sapiens, UniProt Q9NRP7)
T27 construct: purchased Ambit (DiscoverX) KINOMEscan; Cerep
Outline: as §1

[28] = target: T28, SgK110 (Homo sapiens, UniProt P0C264)
T28 construct: purchased Ambit (DiscoverX) KINOMEscan; Cerep
Outline: as §1

[29] = target: T29, TAOK1 (Homo sapiens, UniProt Q7L7X3)
T29 construct: purchased Ambit (DiscoverX) KINOMEscan; Cerep
Outline: as §1

[30] = target: T30, TLK1 (Homo sapiens, UniProt Q9UKI8)
T30 construct: purchased Ambit (DiscoverX) KINOMEscan; Cerep
Outline: as §1

[31] = target: T31, ULK1 (Homo sapiens, UniProt O75385)
T31 construct: purchased Ambit (DiscoverX) KINOMEscan; Cerep
Outline: as §1

[32] = target: T32, YSK1 (Homo sapiens, UniProt O00506)
T32 construct: purchased Ambit (DiscoverX) KINOMEscan; Cerep
Outline: as §1

T21 sequence (P78356 whole entry): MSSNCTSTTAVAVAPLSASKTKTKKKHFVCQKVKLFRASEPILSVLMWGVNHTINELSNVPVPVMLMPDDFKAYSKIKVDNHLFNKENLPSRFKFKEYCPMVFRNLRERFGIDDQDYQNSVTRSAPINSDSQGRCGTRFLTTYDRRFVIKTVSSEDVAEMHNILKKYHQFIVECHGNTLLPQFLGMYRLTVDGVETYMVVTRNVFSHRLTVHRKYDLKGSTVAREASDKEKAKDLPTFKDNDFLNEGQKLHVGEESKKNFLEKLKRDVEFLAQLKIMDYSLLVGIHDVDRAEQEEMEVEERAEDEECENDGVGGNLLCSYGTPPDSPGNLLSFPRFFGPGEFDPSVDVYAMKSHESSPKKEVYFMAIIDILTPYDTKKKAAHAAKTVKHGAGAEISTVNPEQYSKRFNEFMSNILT
T4 sequence (P00533 25-1210 G719S): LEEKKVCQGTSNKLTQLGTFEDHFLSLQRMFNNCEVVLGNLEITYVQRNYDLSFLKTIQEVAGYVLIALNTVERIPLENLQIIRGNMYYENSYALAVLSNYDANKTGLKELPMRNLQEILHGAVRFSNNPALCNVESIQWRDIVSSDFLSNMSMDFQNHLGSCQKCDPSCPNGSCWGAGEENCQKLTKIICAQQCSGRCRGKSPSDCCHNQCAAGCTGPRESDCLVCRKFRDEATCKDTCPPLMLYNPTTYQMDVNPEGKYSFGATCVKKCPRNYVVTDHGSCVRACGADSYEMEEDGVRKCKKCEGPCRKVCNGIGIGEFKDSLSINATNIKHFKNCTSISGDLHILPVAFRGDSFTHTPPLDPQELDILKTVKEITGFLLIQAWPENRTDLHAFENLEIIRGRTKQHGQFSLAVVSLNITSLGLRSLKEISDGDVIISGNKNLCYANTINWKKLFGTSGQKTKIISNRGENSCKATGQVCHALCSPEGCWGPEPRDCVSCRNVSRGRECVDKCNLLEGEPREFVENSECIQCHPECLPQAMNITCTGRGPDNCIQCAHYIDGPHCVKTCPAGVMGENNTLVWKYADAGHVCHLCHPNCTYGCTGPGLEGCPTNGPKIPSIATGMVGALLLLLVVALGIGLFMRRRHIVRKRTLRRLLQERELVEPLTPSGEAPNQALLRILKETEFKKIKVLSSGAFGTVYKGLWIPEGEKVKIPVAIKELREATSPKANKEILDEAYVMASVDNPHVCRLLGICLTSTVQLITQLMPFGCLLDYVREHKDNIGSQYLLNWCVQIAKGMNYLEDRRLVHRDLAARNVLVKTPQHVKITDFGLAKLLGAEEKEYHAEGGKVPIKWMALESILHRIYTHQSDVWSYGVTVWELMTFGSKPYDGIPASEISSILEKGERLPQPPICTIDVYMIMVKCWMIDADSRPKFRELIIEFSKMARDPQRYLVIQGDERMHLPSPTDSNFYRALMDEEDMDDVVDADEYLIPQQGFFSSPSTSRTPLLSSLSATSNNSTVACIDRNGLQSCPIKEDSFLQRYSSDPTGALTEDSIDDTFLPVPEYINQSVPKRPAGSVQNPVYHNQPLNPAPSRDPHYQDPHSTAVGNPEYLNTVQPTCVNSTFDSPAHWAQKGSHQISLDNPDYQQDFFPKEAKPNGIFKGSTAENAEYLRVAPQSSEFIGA
T32 sequence (O00506 whole entry): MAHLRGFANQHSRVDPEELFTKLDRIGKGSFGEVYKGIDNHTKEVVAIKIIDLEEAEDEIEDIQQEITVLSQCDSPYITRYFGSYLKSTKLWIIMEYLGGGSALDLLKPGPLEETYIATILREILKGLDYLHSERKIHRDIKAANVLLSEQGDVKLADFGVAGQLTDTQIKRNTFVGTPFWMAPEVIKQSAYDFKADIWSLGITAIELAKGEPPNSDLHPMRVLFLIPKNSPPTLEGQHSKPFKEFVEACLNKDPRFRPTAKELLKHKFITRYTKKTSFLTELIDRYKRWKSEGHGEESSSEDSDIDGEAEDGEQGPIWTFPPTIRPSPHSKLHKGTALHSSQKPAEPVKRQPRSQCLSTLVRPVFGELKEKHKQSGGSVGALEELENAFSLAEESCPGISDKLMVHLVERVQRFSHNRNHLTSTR
T1 sequence (Q8N5S9 whole entry): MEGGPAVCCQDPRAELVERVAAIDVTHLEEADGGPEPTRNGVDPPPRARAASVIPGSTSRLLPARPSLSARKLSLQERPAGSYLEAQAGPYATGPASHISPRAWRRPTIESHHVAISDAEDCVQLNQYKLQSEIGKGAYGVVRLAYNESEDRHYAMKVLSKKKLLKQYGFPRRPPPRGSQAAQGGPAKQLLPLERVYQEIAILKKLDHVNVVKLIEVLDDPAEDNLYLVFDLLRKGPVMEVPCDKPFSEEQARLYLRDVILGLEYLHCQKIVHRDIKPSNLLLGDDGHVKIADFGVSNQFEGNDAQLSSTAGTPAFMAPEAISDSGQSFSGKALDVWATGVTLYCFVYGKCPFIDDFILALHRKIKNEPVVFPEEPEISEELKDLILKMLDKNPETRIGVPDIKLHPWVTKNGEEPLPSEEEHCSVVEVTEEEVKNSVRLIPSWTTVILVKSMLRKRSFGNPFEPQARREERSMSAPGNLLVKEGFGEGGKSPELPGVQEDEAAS
T27 sequence (Q9NRP7 whole entry): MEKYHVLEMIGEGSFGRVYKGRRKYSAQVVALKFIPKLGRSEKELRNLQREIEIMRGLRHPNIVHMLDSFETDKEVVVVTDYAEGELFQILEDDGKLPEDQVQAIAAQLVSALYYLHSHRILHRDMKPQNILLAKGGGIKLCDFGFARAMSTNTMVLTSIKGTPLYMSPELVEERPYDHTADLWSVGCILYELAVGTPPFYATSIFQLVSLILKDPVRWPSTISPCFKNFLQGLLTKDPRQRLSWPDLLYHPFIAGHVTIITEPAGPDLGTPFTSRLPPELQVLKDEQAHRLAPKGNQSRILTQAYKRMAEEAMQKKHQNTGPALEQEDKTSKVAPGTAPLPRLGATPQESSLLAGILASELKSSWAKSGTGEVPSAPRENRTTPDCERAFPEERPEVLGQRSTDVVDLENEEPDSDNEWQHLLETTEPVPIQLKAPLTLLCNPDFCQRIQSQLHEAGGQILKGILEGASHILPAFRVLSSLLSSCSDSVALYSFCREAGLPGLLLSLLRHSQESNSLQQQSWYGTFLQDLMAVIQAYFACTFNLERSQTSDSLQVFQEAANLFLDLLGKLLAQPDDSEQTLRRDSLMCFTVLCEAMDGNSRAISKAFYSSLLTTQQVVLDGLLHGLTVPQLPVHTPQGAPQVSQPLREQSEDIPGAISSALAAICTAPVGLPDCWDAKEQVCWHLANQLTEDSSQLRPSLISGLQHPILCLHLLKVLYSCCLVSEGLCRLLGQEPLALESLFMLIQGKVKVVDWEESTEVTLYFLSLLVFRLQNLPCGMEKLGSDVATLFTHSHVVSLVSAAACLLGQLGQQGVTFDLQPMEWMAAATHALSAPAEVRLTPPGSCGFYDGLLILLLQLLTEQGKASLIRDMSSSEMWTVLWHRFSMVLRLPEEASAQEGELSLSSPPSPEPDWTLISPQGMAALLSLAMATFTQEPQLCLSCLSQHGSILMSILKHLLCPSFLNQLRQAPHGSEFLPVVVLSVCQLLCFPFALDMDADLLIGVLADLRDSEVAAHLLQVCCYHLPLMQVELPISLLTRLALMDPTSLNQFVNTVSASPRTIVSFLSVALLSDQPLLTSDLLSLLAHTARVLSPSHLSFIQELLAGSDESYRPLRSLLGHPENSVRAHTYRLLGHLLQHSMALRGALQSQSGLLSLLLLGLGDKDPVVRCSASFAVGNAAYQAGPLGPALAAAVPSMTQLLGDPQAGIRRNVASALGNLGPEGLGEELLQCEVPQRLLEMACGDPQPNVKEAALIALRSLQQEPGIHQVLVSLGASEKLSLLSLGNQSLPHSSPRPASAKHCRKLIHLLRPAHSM
T10 sequence (Q9H422 whole entry): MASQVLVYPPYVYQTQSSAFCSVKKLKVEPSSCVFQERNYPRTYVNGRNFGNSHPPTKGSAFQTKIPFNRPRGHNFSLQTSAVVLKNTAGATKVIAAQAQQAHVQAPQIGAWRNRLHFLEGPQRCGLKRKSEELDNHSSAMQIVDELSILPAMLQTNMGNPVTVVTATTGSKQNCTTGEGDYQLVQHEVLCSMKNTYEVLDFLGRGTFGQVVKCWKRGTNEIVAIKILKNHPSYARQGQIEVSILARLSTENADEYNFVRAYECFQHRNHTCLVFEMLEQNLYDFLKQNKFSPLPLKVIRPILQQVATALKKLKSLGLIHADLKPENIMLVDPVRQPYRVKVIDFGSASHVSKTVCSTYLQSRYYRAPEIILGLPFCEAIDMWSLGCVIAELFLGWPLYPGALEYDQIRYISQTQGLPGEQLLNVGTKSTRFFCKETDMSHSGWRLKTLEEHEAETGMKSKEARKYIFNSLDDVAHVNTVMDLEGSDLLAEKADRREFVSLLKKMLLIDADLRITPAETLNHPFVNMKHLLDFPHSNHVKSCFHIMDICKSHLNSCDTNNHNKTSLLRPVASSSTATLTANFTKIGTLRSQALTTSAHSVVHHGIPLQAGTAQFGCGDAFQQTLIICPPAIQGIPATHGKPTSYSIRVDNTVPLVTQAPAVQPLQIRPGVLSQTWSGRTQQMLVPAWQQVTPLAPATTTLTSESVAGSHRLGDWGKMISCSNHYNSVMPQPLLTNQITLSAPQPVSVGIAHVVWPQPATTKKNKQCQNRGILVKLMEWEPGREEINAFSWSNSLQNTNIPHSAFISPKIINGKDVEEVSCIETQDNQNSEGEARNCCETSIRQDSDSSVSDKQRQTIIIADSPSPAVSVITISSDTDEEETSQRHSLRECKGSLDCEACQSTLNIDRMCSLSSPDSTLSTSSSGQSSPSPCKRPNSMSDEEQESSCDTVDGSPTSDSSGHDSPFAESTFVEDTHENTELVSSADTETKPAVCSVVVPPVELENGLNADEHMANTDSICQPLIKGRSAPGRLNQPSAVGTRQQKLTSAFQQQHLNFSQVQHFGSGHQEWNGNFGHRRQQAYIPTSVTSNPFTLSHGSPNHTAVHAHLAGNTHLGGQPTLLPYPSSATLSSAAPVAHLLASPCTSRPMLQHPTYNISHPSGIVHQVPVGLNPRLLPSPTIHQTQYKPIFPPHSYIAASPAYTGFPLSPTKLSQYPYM

## CCCCN1CCN(C(=N)c2cccc(NC(=O)Nc3ccc(S(=O)(=O)NCc4ccc(S(N)(=O)=O)cc4)cc3)c2)CC1 [SC81458, 4-(3-(3-((4-butylpiperazin-1-yl)(imino)methyl)phenyl)ureido)-N-(4-sulfamoylbenzyl) benzenesulfonamide]
[1]
  remaining binding at 10 µM: 93%
[2]
  remaining binding at 10 µM: 98%
[3]
  remaining binding at 10 µM: 100%
[4]
  remaining binding at 10 µM: 100%
[5]
  remaining binding at 10 µM: 84%
[6]
  remaining binding at 10 µM: 100%
[7]
  remaining binding at 10 µM: 99%
[8]
  remaining binding at 10 µM: 100%
[9]
  remaining binding at 10 µM: 100%
[10]
  remaining binding at 10 µM: 99%
[11]
  remaining binding at 10 µM: 89%
[12]
  remaining binding at 10 µM: 100%
[13]
  remaining binding at 10 µM: 100%
[14]
  remaining binding at 10 µM: 97%
[15]
  remaining binding at 10 µM: 91%
[16]
  remaining binding at 10 µM: 71%
[17]
  remaining binding at 10 µM: 100%
[18]
  remaining binding at 10 µM: 61%
[19]
  remaining binding at 10 µM: 100%
[20]
  remaining binding at 10 µM: 87%
[21]
  remaining binding at 10 µM: 84%
[22]
  remaining binding at 10 µM: 100%
[23]
  remaining binding at 10 µM: 98%
[24]
  remaining binding at 10 µM: 96%
[25]
  remaining binding at 10 µM: 100%
[26]
  remaining binding at 10 µM: 93%
[27]
  remaining binding at 10 µM: 100%
[28]
  remaining binding at 10 µM: 100%
[29]
  remaining binding at 10 µM: 100%
[30]
  remaining binding at 10 µM: 100%
[31]
  remaining binding at 10 µM: 100%
[32]
  remaining binding at 10 µM: 76%

Reference: paper PMC5290327, “SC83288 is a clinical development candidate for the treatment of severe malaria” (Nature Communications, 2017)
